Experiment: mn = molality of the nth substance listed, in mol/kg
Settings: 100 kPa, Liquid; for viscosity: Capillary tube (Ostwald / Ubbelohde) method; for speed of sound: Frequency=3 MHz, Sing-around technique in a fixed-path interferometer; for mass density: Vibrating tube method

C[C@H](CCC(=O)[O-])[C@H]1CC[C@H]2[C@@H]3CC[C@@H]4C[C@H](O)CC[C@]4(C)[C@H]3C[C@H](O)[C@]12C.[Na+] [sodium deoxycholate] + O
Settings	mass density [kg/m3]	speed of sound [m/s]	viscosity [mPa·s]
293.15 K, m1 = 0.001	998.465	1483.4	1.003
293.15 K, m1 = 0.002	998.579	1483.8	1.004
293.15 K, m1 = 0.003	998.669	1484.2	1.006
293.15 K, m1 = 0.004	998.749	1484.5	1.009
293.15 K, m1 = 0.005	998.815	1484.6	1.014
293.15 K, m1 = 0.006	998.905	1485	1.027
293.15 K, m1 = 0.007	998.995	1485.2	1.036
293.15 K, m1 = 0.009	999.185	1485.5	1.045
293.15 K, m1 = 0.011	999.39	1485.8	1.049
293.15 K, m1 = 0.013	999.585	1486.2	1.053
293.15 K, m1 = 0.015	999.795	1486.5	1.062
293.15 K, m1 = 0.017	999.993	1486.8	1.069
298.15 K, m1 = 0.001	997.29	1497.2	0.8914
298.15 K, m1 = 0.002	997.395	1497.5	0.8926
298.15 K, m1 = 0.003	997.475	1497.8	0.8937
298.15 K, m1 = 0.004	997.555	1497.9	0.8967
298.15 K, m1 = 0.005	997.635	1498.1	0.9021
298.15 K, m1 = 0.006	997.715	1498.4	0.915
298.15 K, m1 = 0.007	997.805	1498.7	0.924
298.15 K, m1 = 0.009	997.996	1499.2	0.9323
298.15 K, m1 = 0.011	998.185	1499.5	0.9368
298.15 K, m1 = 0.013	998.388	1499.9	0.941
298.15 K, m1 = 0.015	998.572	1500.2	0.9489
298.15 K, m1 = 0.017	998.772	1500.6	0.956
303.15 K, m1 = 0.001	995.88	1509.6	0.7987
303.15 K, m1 = 0.002	995.983	1509.9	0.7999
303.15 K, m1 = 0.003	996.059	1510	0.801
303.15 K, m1 = 0.004	996.137	1510.2	0.8039
303.15 K, m1 = 0.005	996.215	1510.5	0.8092
303.15 K, m1 = 0.006	996.289	1510.7	0.822
303.15 K, m1 = 0.007	996.377	1511	0.8309
303.15 K, m1 = 0.009	996.557	1511.3	0.8391
303.15 K, m1 = 0.011	996.745	1511.8	0.8434
303.15 K, m1 = 0.013	996.921	1512	0.8476
303.15 K, m1 = 0.015	997.109	1512.3	0.8554
303.15 K, m1 = 0.017	997.29	1512.7	0.8624
308.15 K, m1 = 0.001	994.255	1520.1	0.7203
308.15 K, m1 = 0.002	994.355	1520.5	0.7215
308.15 K, m1 = 0.003	994.435	1520.7	0.7225
308.15 K, m1 = 0.004	994.509	1520.8	0.7254
308.15 K, m1 = 0.005	994.587	1521	0.7307
308.15 K, m1 = 0.006	994.659	1521.3	0.7433
308.15 K, m1 = 0.007	994.739	1521.5	0.752
308.15 K, m1 = 0.009	994.914	1521.9	0.7601
308.15 K, m1 = 0.011	995.094	1522.2	0.7644
308.15 K, m1 = 0.013	995.282	1522.6	0.7685
308.15 K, m1 = 0.015	995.452	1522.8	0.7762
308.15 K, m1 = 0.017	995.616	1523.2	0.7831
313.15 K, m1 = 0.001	992.421	1529.3	0.6543
313.15 K, m1 = 0.002	992.515	1529.5	0.6554
313.15 K, m1 = 0.003	992.6	1529.7	0.6565
313.15 K, m1 = 0.004	992.681	1529.8	0.6593
313.15 K, m1 = 0.005	992.757	1530	0.6645
313.15 K, m1 = 0.006	992.817	1530.3	0.677
313.15 K, m1 = 0.007	992.91	1530.5	0.6857
313.15 K, m1 = 0.009	993.064	1530.9	0.6936
313.15 K, m1 = 0.011	993.239	1531.2	0.6979
313.15 K, m1 = 0.013	993.428	1531.5	0.7019
313.15 K, m1 = 0.015	993.595	1531.8	0.7096
313.15 K, m1 = 0.017	993.737	1532	0.7164
318.15 K, m1 = 0.001	990.405	1536.9	0.5973
318.15 K, m1 = 0.002	990.499	1537.1	0.5984
318.15 K, m1 = 0.003	990.576	1537.3	0.5994
318.15 K, m1 = 0.004	990.651	1537.3	0.6022
318.15 K, m1 = 0.005	990.732	1537.5	0.6074
318.15 K, m1 = 0.006	990.802	1537.7	0.6197
318.15 K, m1 = 0.007	990.892	1537.9	0.6283
318.15 K, m1 = 0.009	991.03	1538.3	0.6361
318.15 K, m1 = 0.011	991.199	1538.6	0.6403
318.15 K, m1 = 0.013	991.379	1538.9	0.6443
318.15 K, m1 = 0.015	991.535	1539.2	0.6518
318.15 K, m1 = 0.017	991.705	1539.5	0.6586

From the NIST ThermoML archive (doi:10.1016/j.tca.2015.02.014)
